# According to US20230201113A1, “IMMUNE BOOSTER - SUPPLEMENT TREATMENT KIT AND METHODS OF USE” (priority 2020, published 2023):
# Tested on: SARS-CoV-2
# Assay type: in vivo
# Conditions: of the 50 subjects in the control group
substance,measurement,value
hydroxychloroquine [Placebo + hydroxychloroquine],subjects resolved from positive to negative through PCR testing after ten days,9 subjects
